According to publication PMC3463587, “A Series of Beta-Carboline Derivatives Inhibit the Kinase Activity of PLKs” (PLoS ONE, 2012):

Tests used:
[1] = tested on: cdc5-2 mutant yeast cells; test: Yeast growth inhibition (MIC), cdc5-2 mutant; settings: 10 µg/ml, 25°C
Protocol: (§2) The Cdc5 kinase is the functional homologue of PLK1 in budding yeast and the incubation of cdc5-2 mutants at 37°C impairs the kinase activity and stops cell growth. […] We also compared the sensitivity of wild-type and cdc5-2 mutant cells to the selected compounds at different concentrations. […] The temperature sensitive cdc5-2 mutants and wild-type strains were used. […] After incubation at 25°C for 24 hr, the growth of the yeast cells was determined by measuring OD600.

wild-type yeast cells = test: Yeast growth inhibition (MIC), wild-type; settings: 10 µg/ml, 25°C
Protocol: as §2

HeLa cells = test: MTT cell proliferation assay, HeLa; assay type: cell-based; settings: Homo sapiens, 48 hr
Text: (§1) BI2536 was purchased from Selleck (Selleck, USA).

MG63 cells = test: MTT cell proliferation assay, MG63; assay type: cell-based; settings: Homo sapiens, MG-63, 48 hr
Text: as §1

HepG2 cells = test: MTT cell proliferation assay, HepG2; assay type: cell-based; settings: Homo sapiens, 48 hr
Text: as §1

[2] = tested on: four cancer cell lines (HepG2, MG63, HeLa and PC3); test: Growth inhibition of four cancer cell lines; assay type: cell-based, Human
Text: In order to find more efficient antitumor small molecules targeting PLK1, we synthesized additional 18 beta-carboline compounds and the structures of these compounds are shown in Figure 1. The growth inhibition of four cancer cell lines (HepG2, MG63, HeLa and PC3) by these compounds was examined. […] We selected DH281, DH285 and DH287 for further studies.

PC3 cells = test: MTT cell proliferation assay, PC3; assay type: cell-based; settings: Homo sapiens, PC-3, 48 hr
Text: as §1

SMILES: CC[C@@H]1C(=O)N(C)c2cnc(Nc3ccc(C(=O)NC4CCN(C)CC4)cc3OC)nc2N1C1CCCC1 [BI2536, reference compound]
- growth inhibition of cdc5-2 mutant cells [1]: complete growth inhibition
- growth of wild-type cells (wild-type yeast cells): unaffected

SMILES: COc1ccc2c3ccnc(C)c3n(Cc3cccc(Cl)c3)c2c1 [DH145]
- IC50 (HeLa cells): 40.5 ± 0.14 µM
- IC50 (MG63 cells): 73.12 ± 0.31 µM
- IC50 (HepG2 cells): 68.45 ± 0.02 µM
- antitumor activity (growth inhibition) [2]: did not show obvious antitumor activity
- IC50 (PC3 cells): 75.39 ± 0.16 µM

SMILES: Fc1ccc(Cn2c3ccccc3c3cc[n+](Cc4ccccc4)c(Cc4ccccc4)c32)cc1 [DH271]
- IC50 (HeLa cells): 3.86 ± 0.44 µM
- IC50 (MG63 cells): 5.97 ± 0.06 µM
- IC50 (HepG2 cells): 4.01 ± 0.1 µM
- IC50 (PC3 cells): 8.38 ± 0.24 µM

SMILES: c1ccc(CCCn2c3ccccc3c3cc[n+](Cc4ccccc4)cc32)cc1 [DH272]
- IC50 (HeLa cells): 8.16 ± 0.37 µM
- IC50 (MG63 cells): 12.8 ± 0.28 µM
- IC50 (HepG2 cells): 12.47 ± 0.12 µM
- IC50 (PC3 cells): 22.1 ± 0.43 µM

SMILES: Clc1cccc(C[n+]2ccc3c4ccccc4n(CCCc4ccccc4)c3c2)c1 [DH273]
- IC50 (HeLa cells): 3.77 ± 0.25 µM
- IC50 (MG63 cells): 4.21 ± 0.45 µM
- IC50 (HepG2 cells): 5.08 ± 0.38 µM
- IC50 (PC3 cells): 3.86 ± 0.12 µM

SMILES: Fc1ccc(C[n+]2ccc3c4ccccc4n(CCCc4ccccc4)c3c2)cc1 [DH274]
- IC50 (HeLa cells): 5.73 ± 0.18 µM
- IC50 (MG63 cells): 6.38 ± 0.19 µM
- IC50 (HepG2 cells): 7.37 ± 0.26 µM
- IC50 (PC3 cells): 6.07 ± 0.27 µM

SMILES: Fc1ccc(C[n+]2ccc3c4ccccc4n(Cc4cccc(Cl)c4)c3c2)cc1 [DH275]
- IC50 (HeLa cells): 5.83 ± 0.03 µM
- IC50 (MG63 cells): 7.32 ± 0.22 µM
- IC50 (HepG2 cells): 10.4 ± 0.37 µM
- IC50 (PC3 cells): 6.36 ± 0.11 µM

SMILES: Clc1cccc(Cn2c3ccccc3c3cc[n+](Cc4cccc(Cl)c4)cc32)c1 [DH276]
- IC50 (HeLa cells): 6.04 ± 0.17 µM
- IC50 (MG63 cells): 7.3 ± 0.06 µM
- IC50 (HepG2 cells): 11.2 ± 0.22 µM
- IC50 (PC3 cells): 6.65 ± 0.4 µM

SMILES: Clc1cccc(Cn2c3ccccc3c3cc[n+](Cc4ccccc4)cc32)c1 [DH277]
- IC50 (HeLa cells): 8.48 ± 0.23 µM
- IC50 (MG63 cells): 20.4 ± 0.16 µM
- IC50 (HepG2 cells): 18.8 ± 0.29 µM
- IC50 (PC3 cells): 10.8 ± 0.21 µM

SMILES: Cc1nccc2c3ccc(OCc4cccc(Cl)c4)cc3n(CCCc3ccccc3)c12 [DH278]
- IC50 (HeLa cells): 63.14 ± 0.47 µM
- IC50 (MG63 cells): > 150 µM
- IC50 (HepG2 cells): > 100 µM
- antitumor activity (growth inhibition) [2]: did not show obvious antitumor activity
- IC50 (PC3 cells): 80.21 ± 0.31 µM

SMILES: Cc1nccc2c3ccc(OCc4ccc(F)cc4)cc3n(CCCc3ccccc3)c12 [DH279]
- IC50 (HeLa cells): > 100 µM
- IC50 (MG63 cells): > 100 µM
- IC50 (HepG2 cells): > 100 µM
- antitumor activity (growth inhibition) [2]: did not show obvious antitumor activity
- IC50 (PC3 cells): > 100 µM

SMILES: Cc1c2c(cc[n+]1Cc1ccccc1)c1ccc(OCc3cccc(Cl)c3)cc1n2CCCc1ccccc1 [DH280]
- IC50 (HeLa cells): 0.99 ± 0.14 µM
- IC50 (MG63 cells): 1.86 ± 0.33 µM
- IC50 (HepG2 cells): 2.59 ± 0.16 µM
- antitumor activity (growth inhibition) [2]: very strong growth inhibition
- IC50 (PC3 cells): 2.34 ± 0.06 µM

SMILES: CCCCn1c2ccccc2c2cc(C(=O)NCCO)nc(C)c21 [DH286]
- IC50 (HeLa cells): 65.81 ± 0.23 µM
- IC50 (MG63 cells): 46.09 ± 0.37 µM
- IC50 (HepG2 cells): > 150 µM
- antitumor activity (growth inhibition) [2]: did not show obvious antitumor activity
- IC50 (PC3 cells): 72.96 ± 0.53 µM

SMILES: Cc1nccc2c3ccc(OCc4ccccc4)cc3n(Cc3ccccc3)c12 [DH288]
- IC50 (HeLa cells): > 100 µM
- IC50 (MG63 cells): > 100 µM
- IC50 (HepG2 cells): > 100 µM
- antitumor activity (growth inhibition) [2]: did not show obvious antitumor activity
- IC50 (PC3 cells): > 100 µM
